Common to all, as to format: biochemical
Test [1] addresses Porcine pancreatic elastase (Sus scrofa, UniProt P00772). The experiment in a line: In vitro anti-elastase activity. How it is done:
The assay employed was based on methods from the literature. This assay was performed in 0.2 mM Tris-HCL buffer (pH 8.0). Porcine pancreatic elastase (PE-E.C.3.4.21.36) was dissolved to make a 3.33 mg/mL stock solution in sterile water. The substrate N-succinyl-Ala-Ala-Ala-p-nitroanilide (AAAPVN) was dissolved in buffer at 1.6 mM. The test extracts were incubated with the enzyme for 15 minutes before adding substrate to begin the reaction. The final reaction mixture (250 μL total volume) contained buffer, 0.8 mM AAAPVN,1 mg/mL PE and 25 mg test extract. EGCG (1 mg/mL) was used as a positive control. Negative controls were performed using water. Absorbance values between 381 and 402 nm (following pre-screen scans) were measured immediately following addition of the substrate and then continuous for 20 minutes. FIG. 6

Test [2] concerns Collagenase from Clostridium histolyticum. The experiment in a line: In vitro anti-collagenase activity (FALGPA substrate). How it is done: The assay employed was based on spectrophotometric methods reported in the literature. The assay was performed in 50 mM Tricine buffer (pH 7.5 with 400 mM NaCl and 10 mM CaCl2). Collagenase from Clostridium histolyticum (ChC-[…]) was dissolved in buffer for use at an initial concentration of 0.8 units/mL according to the supplier's activity data. The synthetic substrate N-[3-(2-furyl)acryloyl]-Leu-Gly-Pro-Ala (FALGPA) was dissolved in Tricine buffer to 2 mM. […] The final reaction mixture (150 μL total volume) contained Tricine buffer, 0.8 mM FALGPA, 0.1 units ChC and 20-100 μg test extracts. Negative controls were performed with water. Absorbance at 335 nm was measured immediately after adding substrate and then continuous for 20 minutes. EGCG, 250 μM (0.114 mg/mL) was used as a positive control. FIG. 9

A further test concerns Mushroom tyrosinase. The experiment in a line: In vitro anti-tyrosinase activity (L-DOPA, dopachrome at 475 nm). Here is the method:
Mushroom tyrosinase (Prod. No. T7755) and L-DOPA were purchased from Sigma Adrich. […] We also prepared positive controls of lmg/mL kojic acid solutions (with water), with enzyme. Twenty 20 μL of 0.85 mM L-DOPA solution as the substrate was added into every sample and blank. These assay mixtures were incubated at 25° C. for 10 min. The amount of dopachrome produced in the reaction mixture was measured at 475 nm.

Molecules are shown by their SMILES.

Sequence of Porcine pancreatic elastase (P00772 27-266): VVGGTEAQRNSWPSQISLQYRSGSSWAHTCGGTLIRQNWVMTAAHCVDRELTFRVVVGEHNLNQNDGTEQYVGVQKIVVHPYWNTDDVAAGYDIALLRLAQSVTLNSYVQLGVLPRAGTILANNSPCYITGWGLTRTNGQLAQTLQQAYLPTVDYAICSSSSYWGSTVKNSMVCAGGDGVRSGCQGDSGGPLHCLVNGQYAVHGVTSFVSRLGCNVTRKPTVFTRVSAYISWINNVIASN

Regarding `O=C(O[C@@H]1Cc2c(O)cc(O)cc2O[C@@H]1c1cc(O)c(O)c(O)c1)c1cc(O)c(O)c(O)c1` [EGCG, epigallocatechin gallate], the “% inhibition of Elastase activity” value in test [1] (20 μg/ml) is 43.98%; in test [1] (40 μg/ml), 54.36%; in test [1] (60 μg/ml) it was 53.32%; in test [1] (80 μg/ml), 60.37%; in test [1] (100 μg/ml) it was 62.45%. Further, the “% inhibition of Collagenase activity” value in test [2] (20 μg/ml) turned out to be 8.30%; in test [2] (40 μg/ml), 16.93%; in test [2] (60 μg/ml), 25.83%; in test [2] (80 μg/ml) it was 32.70%; in test [2] (100 μg/ml), 41.52%.
Turning to `O=c1cc(CO)occ1O` [Kojic acid, kojic acid], the “% inhibition of tyrosinase activity” value with Mushroom tyrosinase (20 μg/ml) was found to be 64.46%; in the test with Mushroom tyrosinase (40 μg/ml), 77.66%; in the test with Mushroom tyrosinase (60 μg/ml) it was 88.32%; with Mushroom tyrosinase (80 μg/ml) it was 91.37%; in the test on Mushroom tyrosinase (100 μg/ml) it was 93.90%.

Values taken from US10004679B2, “Compositions of Amorphophallus konjac and methods for their use in skin care” (Vidya Herbs, Inc., priority 2014, dated 2018).
